Source: PubChem BioAssay (NCI)
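Test compounds were applied to cells in 96-well plates for 48 hours at 5 doses. GI50 marks 50% less growth. TGI denotes the concentration required for complete inhibition of growth.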

The molecules below were run on HS 578T breast (assay: NCI-60 cell line screen, 48 h).

Row | Compound | TGI | GI50
1 | N#Cc1c(Cl)c2cc([N+](=O)[O-])ccc2n2c1nc1ccccc12 | 18 µM | –
2 | O=S1(=O)N(CCNc2nccc(-c3c(-c4cccc(O)c4)nc4sccn34)n2)CCN1Cc1ccccc1 | 16.6 µM | 2.78 µM
3 | COc1cc(/C=C2\CCCC3=C2NC(C)=NC3c2cc(OC)c(OC)c(OC)c2)cc(OC)c1OC (stereo not given) | > 100 µM | 5.16 µM
4 | O=C(N/N=C\c1cccc(O)c1)c1ccncc1 | > 100 µM | –
5 | Cc1cc(O)c(C(C)(C)C)cc1Sc1cc(C(C)(C)C)c(O)cc1C | 13.9 µM | 3.02 µM
6 | O=C1NN(C2=NNC3(C(=O)N2)c2ccccc2-c2ccccc23)C(c2ccccc2)=N/C1=C/c1ccc(O)cc1 | > 150 µg/mL | 50.4 µg/mL
7 | CCOC(=O)C(O)(NC(=O)c1ccc(F)cc1)C(F)(F)F (stereo not given) | > 100 µM | –
8 | Cc1nc2ccccc2n1C(=O)c1c(F)c(F)c(F)c(F)c1F | > 100 µM | –

These molecules were tested on MOLT-4 leukemia (assay: NCI-60 cell line screen, 48 h).

Row | Compound | TGI | GI50
9 | O=C(O)Cc1cc(O)c(CC(=O)O)cc1O | > 100 µM | –
10 | O=S1(=O)N(CCNc2nccc(-c3c(-c4cccc(O)c4)nc4sccn34)n2)CCN1Cc1ccccc1 | 40.3 µM | 7840 nM
11 | C=C(C)C(=O)OC1CCC2(C)C(CCC3C2CCC2(C)C(c4ccc(=O)oc4)CC4OC432)C1 (stereo not given) | 15.5 µM | –
12 | COc1cc(/C=C2\CCCC3=C2NC(C)=NC3c2cc(OC)c(OC)c(OC)c2)cc(OC)c1OC (stereo not given) | > 100 µM | 1930 nM
13 | O=C(N/N=C\c1cccc(O)c1)c1ccncc1 | > 100 µM | –
14 | Cc1cc(O)c(C(C)(C)C)cc1Sc1cc(C(C)(C)C)c(O)cc1C | 8.07 µM | 2670 nM
15 | O=C1CCCCC2N(C(c3ccccc3)c3ccccc3)CC[C@@]12c1ccccc1 (mixture of isomers) | > 10 µM | –
16 | O=C1NN(C2=NNC3(C(=O)N2)c2ccccc2-c2ccccc23)C(c2ccccc2)=N/C1=C/c1ccc(O)cc1 | 15 µg/mL | 15 µg/mL
17 | CCOC(=O)C(O)(NC(=O)c1ccc(F)cc1)C(F)(F)F (stereo not given) | > 100 µM | –
18 | Cc1nc2ccccc2n1C(=O)c1c(F)c(F)c(F)c(F)c1F | 27.1 µM | –
19 | Clc1ccccc1/C=C/c1cscn1 | > 100 µM | –

These molecules were tested on PC-3 prostate (assay: NCI-60 cell line screen, 48 h).

Row | Compound | TGI | GI50
20 | O=C(O)Cc1cc(O)c(CC(=O)O)cc1O | > 100 µM | –
21 | N#Cc1c(Cl)c2cc([N+](=O)[O-])ccc2n2c1nc1ccccc12 | 12.5 µM | –
22 | O=S1(=O)N(CCNc2nccc(-c3c(-c4cccc(O)c4)nc4sccn34)n2)CCN1Cc1ccccc1 | > 50 µM | 5660 nM
23 | COc1cc(/C=C2\CCCC3=C2NC(C)=NC3c2cc(OC)c(OC)c(OC)c2)cc(OC)c1OC (stereo not given) | > 100 µM | 2050 nM
24 | O=C(N/N=C\c1cccc(O)c1)c1ccncc1 | > 100 µM | –
25 | Cc1cc(O)c(C(C)(C)C)cc1Sc1cc(C(C)(C)C)c(O)cc1C | 10.6 µM | 2770 nM
26 | O=C1NN(C2=NNC3(C(=O)N2)c2ccccc2-c2ccccc23)C(c2ccccc2)=N/C1=C/c1ccc(O)cc1 | > 150 µg/mL | 56.3 µg/mL
27 | CCOC(=O)C(O)(NC(=O)c1ccc(F)cc1)C(F)(F)F (stereo not given) | > 100 µM | –
28 | Cc1nc2ccccc2n1C(=O)c1c(F)c(F)c(F)c(F)c1F | 71.4 µM | –

The molecules below were run on SF-295 CNS (assay: NCI-60 cell line screen, 48 h).

Row | Compound | TGI | GI50
29 | O=C(O)Cc1cc(O)c(CC(=O)O)cc1O | > 100 µM | –
30 | N#Cc1c(Cl)c2cc([N+](=O)[O-])ccc2n2c1nc1ccccc12 | 62.4 µM | –
31 | C=CC1(C)CCC2=C(CCC3C(C)(C(=O)OC)CCCC23C)C1=O (stereo not given) | 72.5 µM | –
32 | O=S1(=O)N(CCNc2nccc(-c3c(-c4cccc(O)c4)nc4sccn34)n2)CCN1Cc1ccccc1 | 20.3 µM | 7.57 µM
33 | C=C(C)C(=O)OC1CCC2(C)C(CCC3C2CCC2(C)C(c4ccc(=O)oc4)CC4OC432)C1 (stereo not given) | 23.1 µM | –
34 | O=C(N/N=C\c1cccc(O)c1)c1ccncc1 | > 100 µM | –
35 | Cc1cc(O)c(C(C)(C)C)cc1Sc1cc(C(C)(C)C)c(O)cc1C | 5.61 µM | 2.32 µM
36 | O=C1CCCCC2N(C(c3ccccc3)c3ccccc3)CC[C@@]12c1ccccc1 (mixture of isomers) | > 10 µM | –
37 | O=C1NN(C2=NNC3(C(=O)N2)c2ccccc2-c2ccccc23)C(c2ccccc2)=N/C1=C/c1ccc(O)cc1 | > 150 µg/mL | 56.9 µg/mL
38 | CCOC(=O)C(O)(NC(=O)c1ccc(F)cc1)C(F)(F)F (stereo not given) | > 100 µM | –
39 | Cc1nc2ccccc2n1C(=O)c1c(F)c(F)c(F)c(F)c1F | > 100 µM | –

The molecules below were run on SK-OV-3 ovarian (assay: NCI-60 cell line screen, 48 h).

Row | Compound | TGI | GI50
40 | N#Cc1c(Cl)c2cc([N+](=O)[O-])ccc2n2c1nc1ccccc12 | 54.5 µM | –
41 | C=CC1(C)CCC2=C(CCC3C(C)(C(=O)OC)CCCC23C)C1=O (stereo not given) | 34.4 µM | –
42 | C=C(C)C(=O)OC1CCC2(C)C(CCC3C2CCC2(C)C(c4ccc(=O)oc4)CC4OC432)C1 (stereo not given) | 99.8 µM | –
43 | Cc1cc(O)c(C(C)(C)C)cc1Sc1cc(C(C)(C)C)c(O)cc1C | 13.2 µM | 3.56 µM
44 | O=C1CCCCC2N(C(c3ccccc3)c3ccccc3)CC[C@@]12c1ccccc1 (mixture of isomers) | > 10 µM | –
45 | O=C1NN(C2=NNC3(C(=O)N2)c2ccccc2-c2ccccc23)C(c2ccccc2)=N/C1=C/c1ccc(O)cc1 | > 150 µg/mL | 25.6 µg/mL
46 | CCOC(=O)C(O)(NC(=O)c1ccc(F)cc1)C(F)(F)F (stereo not given) | > 100 µM | –
47 | Cc1nc2ccccc2n1C(=O)c1c(F)c(F)c(F)c(F)c1F | 62 µM | –
48 | Clc1ccccc1/C=C/c1cscn1 | > 100 µM | –
